Results taken from PubChem BioAssay (NCI).
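48-hour exposure; five concentrations; linearly interpolated endpoints. At the TGI there is no net growth.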

Key:
Assay in all cases: DTP human tumour cell line panel, 48 h
NCI-H226 lung = system: NCI-H226 lung
IGROV1 ovarian = system: IGROV1 ovarian
RPMI-8226 leukemia = system: RPMI-8226 leukemia
NCI-H460 lung = system: NCI-H460 lung
SNB-19 CNS = system: SNB-19 CNS
HT29 colon = system: HT29 colon
KM12 colon = system: KM12 colon
HOP-92 NSCLC = system: HOP-92 NSCLC
CAKI-1 renal = system: CAKI-1 renal
HOP-62 NSCLC = system: HOP-62 NSCLC

Row | Compound | TGI (NCI-H226 lung) [µM] | TGI (IGROV1 ovarian) [µM] | TGI (RPMI-8226 leukemia) [µM] | TGI (NCI-H460 lung) [µM] | TGI (SNB-19 CNS) [µM] | TGI (HT29 colon) [µM] | TGI (KM12 colon) [µM] | TGI (HOP-92 NSCLC) [µM] | TGI (CAKI-1 renal) [µM] | TGI (HOP-62 NSCLC) [µM]
1 | CN=C(/N=c1\ssc(=NC)n1C)N(C)C | > 100 | > 100 | > 100 | > 100 | > 100 | > 100 | > 100 | > 100 | > 100 | –
2 | O=C1C=CC(=O)c2c(O)c(NCCOCCO)c(Cl)c(O)c21 | 32.4 | 18.1 | > 100 | 13.6 | – | – | 15.1 | 39.4 | 39.6 | 34.2
3 | CN1CC2=C(NC(=S)NC2c2ccccc2)/C(=C/c2ccccc2)C1 (stereo not drawn) | > 100 | > 100 | > 100 | > 100 | > 100 | 71.7 | 68 | – | > 100 | > 100
4 | CC(C)(C)[Si](C)(C)OCc1cccc(OCCOc2cccc(CO[Si](C)(C)C(C)(C)C)c2[N+](=O)[O-])c1[N+](=O)[O-] | > 100 | > 100 | – | > 100 | > 100 | > 100 | > 100 | > 100 | > 100 | > 100
5 | Cn1c(-c2ccc(/C=N/NC(=S)N/N=C/c3ccc(-c4c[n+]5ccsc5n4C)cc3)cc2)c[n+]2ccsc12 | – | > 100 | > 100 | > 100 | > 100 | > 100 | > 100 | – | – | > 100
6 | CN1C(=O)C(O)C[C@@H]1c1ccccc1 (stereo partly drawn) | > 100 | > 100 | > 100 | – | > 100 | > 100 | > 100 | > 100 | > 100 | > 100
7 | O=C(Nc1ccccc1C(=O)NCc1ccccc1)/C(=C/c1ccccc1)NC(=O)c1ccccc1 | > 100 | > 100 | > 100 | – | > 100 | > 100 | > 100 | > 100 | > 100 | > 100
8 | COc1ccc2cc(CNCCCCCCNCc3ccc4cc(OC)ccc4c3)ccc2c1 | 3.49 | 3.15 | – | 0.94 | 1.87 | 0.383 | 0.511 | – | 2.71 | 3.07
9 | CCOP(=O)(OCC)/C(=C/c1cccs1)CC(C)=O | > 100 | > 100 | – | > 100 | > 100 | > 100 | > 100 | > 100 | > 100 | > 100
10 | Cc1ccc(S(=O)(=O)Nc2nnc(S(N)(=O)=O)s2)cc1 | > 100 | – | > 100 | > 100 | > 100 | – | > 100 | > 100 | > 100 | > 100
11 | CCN(CC)C(=S)SS(=O)(=O)c1cccc(N)c1 | > 100 | – | > 100 | > 100 | > 100 | > 100 | > 100 | > 100 | > 100 | > 100
12 | Nc1nc(Cl)cc(NC23CC4CC(CC(C4)C2)C3)n1 | > 100 | > 100 | > 100 | > 100 | > 100 | – | > 100 | > 100 | > 100 | > 100
